Here are results for 7 compounds from ChEMBL document CHEMBL4477229, “Design and Characterization of Superpotent Bivalent Ligands Targeting Oxytocin Receptor Dimers via a Channel-Like Structure” (J Med Chem, 2016).

Where a chain is given by its changes, count along the chain named. Calls of active or inactive are those of the source. The rule behind the calls is not given here. Numbered stars: 1 amine (or outer) side, 2 acyl side, 3 side chain; on linkers, the order of the positions; unused ones are H or OH. Bridge positions count the residues as written; N and C are the ends. Square brackets hold non-standard residues; d marks the D form. Peptide text beside a SMILES is read from it. I, II: the chains in the order shown. * marks the point of attachment. Sebacoyl = O=C(CCCCCCCCC(=O)[*:2])[*:1]; C12 diacid = O=C(O)CCCCCCCCCCC(=O)*; Adipoyl = O=C(CCCCC(=O)[*:2])[*:1]; Octanoyl = CCCCCCCC(=O)*; Mpa = O=C(O)CCS

One experiment has as its system Mus musculus. As to the kind of experiment: Effect on social behavior in OXTR+/- DBA/2J mouse assessed as increase in time spent exploring stranger mouse over time spent exploring empty cage at 0.5 ng/mouse, icv administered as single dose measured for 10 mins by three chamber method. Format: functional, organism-based.
Experiment [1] has as its target T1, Oxytocin receptor (Homo sapiens) (UniProt P30559).
T1 sequence (whole entry): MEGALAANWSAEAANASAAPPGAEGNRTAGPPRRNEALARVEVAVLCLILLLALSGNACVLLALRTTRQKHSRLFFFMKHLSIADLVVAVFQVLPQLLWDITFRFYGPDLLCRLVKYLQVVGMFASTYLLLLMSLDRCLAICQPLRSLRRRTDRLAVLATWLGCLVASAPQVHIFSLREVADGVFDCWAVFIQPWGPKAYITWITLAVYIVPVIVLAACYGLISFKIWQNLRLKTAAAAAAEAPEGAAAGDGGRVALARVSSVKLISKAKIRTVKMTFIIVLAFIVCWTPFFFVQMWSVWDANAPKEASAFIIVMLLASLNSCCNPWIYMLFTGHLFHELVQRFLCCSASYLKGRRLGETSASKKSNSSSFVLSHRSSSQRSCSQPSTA
As to the kind of experiment: (§1) Agonist activity at human oxytocin receptor expressed in HEK293 cells coexpressing Rluc8-tagged Galphaq, N-terminal GFP-tagged Ggamma2 and Gbeta1 protein incubated for 2 mins in presence of TMH1-TAT peptide by Gq protein activation based BRET assay. Format: cell-based. On the set-up: unit not given here. Background: Bioluminescence resonance energy transfer reports proximity on the nanometre scale.

Experiment [2] has as its target T2, Oxytocin receptor (Homo sapiens, UniProt P30559).
T2 sequence (P30559 whole entry): T1 sequence (whole entry)
Described as §1. In kind it is cell-based.

Experiment [3] deals with T3, Oxytocin receptor (Homo sapiens, UniProt P30559, C47A). As to the kind of experiment: Agonist activity at human oxytocin receptor C47A mutant low affinity site expressed in HEK293 cells coexpressing Rluc8-tagged Galphaq, N-terminal GFP-tagged Ggamma2 and Gbeta1 protein incubated for 2 mins by Gq protein activation based BRET assay. Format: cell-based.
The target in experiment [4] is T3, Oxytocin receptor. As to the kind of experiment: Agonist activity at human oxytocin receptor C47A mutant high affinity site expressed in HEK293 cells coexpressing Rluc8-tagged Galphaq, N-terminal GFP-tagged Ggamma2 and Gbeta1 protein incubated for 2 mins by Gq protein activation based BRET assay. Format: cell-based.
For experiment [5], the system named is T4, Oxytocin receptor (Homo sapiens), P30559 [V43A,C47A].
T4 sequence (whole entry): T1 sequence (whole entry) with V43A, C47A
As to the kind of experiment: (§2) Agonist activity at human oxytocin receptor V43A/C47A double mutant expressed in HEK293 cells coexpressing Rluc8-tagged Galphaq, N-terminal GFP-tagged Ggamma2 and Gbeta1 protein incubated for 2 mins by Gq protein activation based BRET assay. In kind it is cell-based. On the set-up: unit not given here.

Experiment [6] has as its target Oxytocin receptor (Homo sapiens, UniProt P30559, C47A/V43A). The experiment is described as §2. In kind it is cell-based.
Experiment [7] addresses T1, Oxytocin receptor (Homo sapiens). As to the kind of experiment: (§3) Agonist activity at human oxytocin receptor expressed in HEK293 cells coexpressing Rluc8-tagged Galphaq, N-terminal GFP-tagged Ggamma2 and Gbeta1 protein incubated for 2 mins by Gq protein activation based BRET assay. In kind it is cell-based. More on the design: unit not given here.
Experiment [8] concerns the target T2, Oxytocin receptor. The description is as §3. In kind it is cell-based.
Experiment [9] addresses T1, Oxytocin receptor (Homo sapiens). As to the kind of experiment: (§4) Agonist activity at human oxytocin receptor expressed in HEK293 cells coexpressing Rluc8-tagged Galphaq, N-terminal GFP-tagged Ggamma2 and Gbeta1 protein incubated for 2 mins in presence of TMH5-TAT peptide by Gq protein activation based BRET assay. In kind it is cell-based. More on the design: unit not given here.

Experiment [10] has as its target T2, Oxytocin receptor. The experiment is described as §4. Format: cell-based.
Experiment [11] relates to T5, Oxytocin receptor (Homo sapiens), P30559 [C47A].
T5 sequence (whole entry): T1 sequence (whole entry) with C47A
As to the kind of experiment: (§5) Agonist activity at human oxytocin receptor C47A mutant expressed in HEK293 cells coexpressing Rluc8-tagged Galphaq, N-terminal GFP-tagged Ggamma2 and Gbeta1 protein incubated for 2 mins by Gq protein activation based BRET assay. Format: cell-based. More on the design: unit not given here.

Another experiment deals with Danio rerio. As to the kind of experiment: Effect on social behavior in zebra fish assessed as increase in time spent swimming parallel to nacre mutant fish over time spent shoaling close to wild type fish at 0.75 ng/kg, im. In kind it is functional, organism-based.
Experiment [12] concerns the target T2, Oxytocin receptor. As to the kind of experiment: Agonist activity at human oxytocin receptor low affinity site expressed in HEK293 cells coexpressing Rluc8-tagged Galphaq, N-terminal GFP-tagged Ggamma2 and Gbeta1 protein incubated for 2 mins in presence of TMH5-TAT peptide by Gq protein activation based BRET assay. Format: cell-based.
Experiment [13] addresses T2, Oxytocin receptor. As to the kind of experiment: Agonist activity at human oxytocin receptor high affinity site expressed in HEK293 cells coexpressing Rluc8-tagged Galphaq, N-terminal GFP-tagged Ggamma2 and Gbeta1 protein incubated for 2 mins by Gq protein activation based BRET assay. Format: cell-based.
For experiment [14], the target named is T2, Oxytocin receptor. As to the kind of experiment: Agonist activity at human oxytocin receptor low affinity site expressed in HEK293 cells coexpressing Rluc8-tagged Galphaq, N-terminal GFP-tagged Ggamma2 and Gbeta1 protein incubated for 2 mins by Gq protein activation based BRET assay. In kind it is cell-based.
Experiment [15] concerns the target T3, Oxytocin receptor. The description is as §5. In kind it is cell-based.
In experiment [16] the target is T2, Oxytocin receptor. As to the kind of experiment: Agonist activity at human oxytocin receptor high affinity site expressed in HEK293 cells coexpressing Rluc8-tagged Galphaq, N-terminal GFP-tagged Ggamma2 and Gbeta1 protein incubated for 2 mins in presence of TMH5-TAT peptide by Gq protein activation based BRET assay. Format: cell-based.
Experiment [17] deals with T1, Oxytocin receptor (Homo sapiens). As to the kind of experiment: Ratio of EC50 for human oxytocin receptor low affinity site expressed in HEK293 cells coexpressing Rluc8-tagged Galphaq, N-terminal GFP-tagged Ggamma2 and Gbeta1 protein to Ki for human oxytocin receptor low affinity site expressed in COS7 cell membrane. Format: cell-based.
The target is the same in experiment [18]. As to the kind of experiment: Displacement of [125I]-OVTA from human oxytocin receptor expressed in COS7 cell membrane. In kind it is cell membranes. A general note: Loss of bound radioactivity is the signal in a displacement assay; it reports binding, not function.
Experiment [19] shares this target. As to the kind of experiment: Ratio of EC50 for human oxytocin receptor high affinity site expressed in HEK293 cells coexpressing Rluc8-tagged Galphaq, N-terminal GFP-tagged Ggamma2 and Gbeta1 protein to Ki for human oxytocin receptor high affinity site expressed in COS7 cell membrane. Format: cell-based.

T3 sequence (P30559 whole entry C47A): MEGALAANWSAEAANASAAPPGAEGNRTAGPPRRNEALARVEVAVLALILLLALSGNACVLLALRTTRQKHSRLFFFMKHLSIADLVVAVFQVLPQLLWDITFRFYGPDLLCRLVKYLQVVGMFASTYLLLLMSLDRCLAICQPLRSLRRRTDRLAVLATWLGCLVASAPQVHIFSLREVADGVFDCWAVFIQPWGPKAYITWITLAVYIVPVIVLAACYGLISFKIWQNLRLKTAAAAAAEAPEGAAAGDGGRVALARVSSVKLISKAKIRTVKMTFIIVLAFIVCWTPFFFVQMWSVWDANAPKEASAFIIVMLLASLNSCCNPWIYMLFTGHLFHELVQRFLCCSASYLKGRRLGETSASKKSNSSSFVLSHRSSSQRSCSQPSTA
Oxytocin receptor (Homo sapiens, UniProt P30559, C47A/V43A), sequence (P30559 whole entry V43A/C47A): as the sequence (P30559 whole entry C47A) above, with V43A counted along it

In the case of `CC[C@H](C)[C@@H]1NC(=O)[C@H](Cc2ccc(O)cc2)NC(=O)[C@@H](N)CSSC[C@@H](C(=O)N2CCC[C@H]2C(=O)N[C@@H](CC(C)C)C(=O)NCC(N)=O)NC(=O)[C@H](CC(N)=O)NC(=O)[C@H](CCC(N)=O)NC1=O`, in the experiment on Mus musculus, the outcome was Active.

A word on the EC50: it is the concentration that produces a half-maximal response. Take `CC[C@H](C)[C@@H]1NC(=O)[C@H](Cc2ccc(O)cc2)NC(=O)CCSSC[C@@H](C(=O)N2CCC[C@H]2C(=O)N[C@@H](CCCCNC(=O)CCCCCCCCCCC(=O)NCCCC[C@H](NC(=O)[C@@H]2CCCN2C(=O)[C@@H]2CSSCCC(=O)N[C@@H](Cc3ccc(O)cc3)C(=O)N[C@@H]([C@@H](C)CC)C(=O)N[C@@H](CCC(N)=O)C(=O)N[C@@H](CC(N)=O)C(=O)N2)C(=O)NCC(N)=O)C(=O)NCC(N)=O)NC(=O)[C@H](CC(N)=O)NC(=O)[C@H](CCC(N)=O)NC1=O` (I: [Mpa]YIQNCPKG-NH2 / II: [Mpa]YIQNCPKG-NH2; disulfide I:1-I:6, II:1-II:6; linker I:8-II:8 via C12 diacid): the Emax in experiment [1] is -0.16; in experiment [5], -0.08; in [7] it was -0.11; in experiment [9], -0.15; in experiment [11], -0.13. Moreover, the EC50 on Oxytocin receptor [2] worked out at 37.9 nM; at Oxytocin receptor [3], 135 nM; at Oxytocin receptor [4], 0.0012 nM; at Oxytocin receptor [6], 182 nM; on Oxytocin receptor [8], 20.1 nM; at Oxytocin receptor [10], 14 nM.

Regarding `CC[C@H](C)[C@@H]1NC(=O)[C@H](Cc2ccc(O)cc2)NC(=O)[C@@H](N)CSSC[C@@H](C(=O)N2CCC[C@H]2C(=O)N[C@H](C(=O)NCC(N)=O)[C@@H](C)CC)NC(=O)[C@H](CC(N)=O)NC(=O)[C@H](CO)NC1=O` (H-CYISNCPIG-NH2; disulfide 1-6), the result in the experiment with Danio rerio was Active.

On to `CC[C@H](C)[C@@H]1NC(=O)[C@H](Cc2ccc(O)cc2)NC(=O)CCSSC[C@@H](C(=O)N2CCC[C@H]2C(=O)N[C@@H](CCCCNC(=O)CCCCCCCCC(=O)NCCCC[C@H](NC(=O)[C@@H]2CCCN2C(=O)[C@@H]2CSSCCC(=O)N[C@@H](Cc3ccc(O)cc3)C(=O)N[C@@H]([C@@H](C)CC)C(=O)N[C@@H](CCC(N)=O)C(=O)N[C@@H](CC(N)=O)C(=O)N2)C(=O)NCC(N)=O)C(=O)NCC(N)=O)NC(=O)[C@H](CC(N)=O)NC(=O)[C@H](CCC(N)=O)NC1=O` (I: [Mpa]YIQNCPKG-NH2 / II: [Mpa]YIQNCPKG-NH2; disulfide I:1-I:6, II:1-II:6; linker I:8-II:8 via Sebacoyl), for which the EC50 at Oxytocin receptor [12] came to 11 nM; on Oxytocin receptor [2], 17.3 nM; on Oxytocin receptor [13] it was 0.0028 nM; at Oxytocin receptor [6], 40.5 nM; on Oxytocin receptor [14] it was 13 nM; on Oxytocin receptor [15], 21.7 nM. Further, the EC50 on Oxytocin receptor [16] worked out at 0.00257 nM. Besides, the Emax is -0.15 in [1]; -0.14 in [5]; -0.1 in experiment [7]; -0.17 in experiment [9]; -0.14 in experiment [11].

For `CC[C@H](C)[C@@H]1NC(=O)[C@H](Cc2ccc(O)cc2)NC(=O)CCSSC[C@@H](C(=O)N2CCC[C@H]2C(=O)N[C@@H](CCCCNC(=O)CCCCC(=O)NCCCC[C@H](NC(=O)[C@@H]2CCCN2C(=O)[C@@H]2CSSCCC(=O)N[C@@H](Cc3ccc(O)cc3)C(=O)N[C@@H]([C@@H](C)CC)C(=O)N[C@@H](CCC(N)=O)C(=O)N[C@@H](CC(N)=O)C(=O)N2)C(=O)NCC(N)=O)C(=O)NCC(N)=O)NC(=O)[C@H](CC(N)=O)NC(=O)[C@H](CCC(N)=O)NC1=O` (I: [Mpa]YIQNCPKG-NH2 / II: [Mpa]YIQNCPKG-NH2; disulfide I:1-I:6, II:1-II:6; linker I:8-II:8 via Adipoyl), the Emax in [5] was -0.14; in experiment [7] it was -0.13; in [11] it was -0.13. The EC50 at Oxytocin receptor [6] came to 25.6 nM; on Oxytocin receptor [8], 11.8 nM; on Oxytocin receptor [15] it was 21.9 nM.

In [7], `CCCCCCCC(=O)NCCCC[C@H](NC(=O)[C@@H]1CCCN1C(=O)[C@@H]1CSSCCC(=O)N[C@@H](Cc2ccc(O)cc2)C(=O)N[C@@H]([C@@H](C)CC)C(=O)N[C@@H](CCC(N)=O)C(=O)N[C@@H](CC(N)=O)C(=O)N1)C(=O)NCC(N)=O` ([Mpa]YIQNCPK(Octanoyl)G-NH2; disulfide 1-6) came in with an Emax of -0.11. At Oxytocin receptor [8], this compound gave an EC50 of 4.1 nM.

Consider `CC[C@H](C)[C@@H]1NC(=O)[C@H](Cc2ccc(O)cc2)NC(=O)CCSSC[C@@H](C(=O)N2CCC[C@H]2C(=O)N[C@@H](CCCCN)C(=O)NCC(N)=O)NC(=O)[C@H](CC(N)=O)NC(=O)[C@H](CCC(N)=O)NC1=O` ([Mpa]YIQNCPKG-NH2; disulfide 1-6), for which the Emax in experiment [1] is -0.15; in experiment [5] it was -0.08; in [7], -0.11 to -0.1; in experiment [9] it was -0.14; in [11], -0.15. For the same compound, the EC50 stood at 0.92 nM on Oxytocin receptor [2]; 0.265 nM on Oxytocin receptor [13]; 33.4 nM at Oxytocin receptor [6]; 4 nM at Oxytocin receptor [8]; 74.8 nM on Oxytocin receptor [14]; 0.75 nM at Oxytocin receptor [10]. Also, the EC50 at Oxytocin receptor [15] was found to be 2.8 nM. Besides, the Ratio in experiment [17] and in experiment [19] was 10 throughout. In experiment [18], this compound registered a KiH of 21 pM. In experiment [18], this compound displayed a KiL of 3.35 nM.
